Laboratory results as given in the METLIN SMRT retention time set (Domingo-Almenara et al. 2019).

Assay: gradient 5% acetonitrile 3 min, to 50% in 2 min, to 85% in 15 min, held 3 min, 100 µL/min
Details: column: Zorbax Extend-C18 2.1 x 50 mm; eluents: water / acetonitrile, 0.1% formic acid
In short: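 Over 3 months, pure standards in mixtures of ~100 molecules were run by HPLC coupled to a quadrupole time-of-flight mass spectrometer in positive and negative ionization mode. The column was a Zorbax Extend-C18 (2.1 × 50 mm, 1.8 μm) at 100 μL/min, eluted with water and acetonitrile each holding 0.1% formic acid, with 40 μL dead and 900 μL dwell volumes. Retention time was determined from adduct peaks chosen by software and checked manually.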

SMILES	RP-LC retention time [s]
Cc1nn2c(S(=O)(=O)N3CCN(C4CCCCC4)CC3)c(C)nc2s1	608
Cc1nc2cc(-c3noc(Cc4ccccc4Br)n3)ccc2o1	1120
Oc1c(C(Nc2ccccc2)c2ccccn2)ccc2cccnc12 (stereo unspecified)	763
Cc1ccc(CNC(=O)C(=O)NCC(c2ccc3c(c2)CCCN3C)N2CCCC2)cc1 (stereo unspecified)	746
CC(C)(C)NC(=O)N1CCC(CNC(=O)CSCc2ccccc2)CC1	735
Cc1ccc(-n2ncc3c(NCCCN(C)C)ncnc32)cc1Cl	670
Cc1cc(C)cc(NC(=O)Cn2ccc3ccc(-c4nnc(C)o4)cc32)c1	1300
Cc1cnn(CC(=O)N2CC(F)(F)C[C@H]2c2nc(C3CC3)no2)c1	703
O=C(NCCCc1ccccc1)C1CCN(C(=O)c2ncn3c2COC(c2ccccc2)C3)CC1 (stereo unspecified)	821
O=S(=O)(c1ccc2nncn2c1)N(Cc1cccc(F)c1)c1ccc(F)cc1	857
Clc1cccc(-c2ccc(CNCCCn3ccnc3)o2)c1	588
COc1ccc(-c2nc(Cc3noc(-c4ccccc4)n3)c(C)o2)cc1	1100
O=C(Nc1cccc([N+](=O)[O-])c1)C1(c2cccs2)CCOCC1	558
Cc1nc(OCC(=O)NC2CCCCC2)c2c(-c3ccccc3)noc2n1	1010
CCC(C)NS(=O)(=O)c1cc(-c2cc(C(F)(F)F)on2)sc1C (stereo unspecified)	1140
COC(=O)c1ccc(NC(=O)CSc2cc(N3CCN(c4ccccc4OC)CC3)ncn2)cc1	970
CCC(C)Nc1nc2c(c(=O)n(C)c(=O)n2C)n1C (stereo unspecified)	742
O=C(NCCN1CCOCC1)C1CCN(c2nccnc2Sc2ccccc2)CC1	627

SMILES	RP-LC retention time [s]
Cc1cc(C)n2nc(SCC(=O)Nc3ccc(C)c(C)c3)nc2n1	764
O=C(COc1cccc(Cl)c1)Nc1nc(-c2ccccc2)cs1	1110
COc1ccc(NC(=O)Cn2ccnc2-c2ccnc(N3CCSCC3)c2)cc1OC	619
CCc1noc(-c2ccnc(-n3ncc(C(=O)N4CCSCC4)c3C)c2)n1	904
COc1ccc2c(c1)C1(CCN(C(=O)c3ccc(Cl)cc3)C1)C(=O)N2C (stereo unspecified)	832
Cc1ccc(-c2nnc(Cc3nc(-c4ccc(OCC(C)C)cc4)no3)o2)cc1F	919
O=C(Cc1ccsc1)N1CCC(Nc2ncnc3c2CCC3)C1 (stereo unspecified)	588
COc1ccc(S(=O)(=O)CCc2noc(C(=O)NCc3cc(OC)c(OC)c(OC)c3)n2)cc1	790
Cc1ccccc1-c1csc2c(=O)n(CC(=O)OC(C)(C)C)cnc12	1060
CCN(CC)CCNC(=O)C1COc2ccc(OC)cc2C1 (stereo unspecified)	602
O=c1c2sccc2n(Cc2nc(-c3ccc(F)c(Cl)c3)no2)c(=O)n1-c1ccc(F)cc1	1090
COc1cc(OC)cc(-c2nc(-c3cn(-c4cccc(F)c4)nn3)no2)c1	1090
CCN(CC)C(=O)c1cnc2snc(C)c2c1N1CCC(C(=O)Nc2cc(C)c(Cl)cc2OC)CC1	1070
Cc1ccc(-c2nc(-c3ccc4c(c3)oc(=O)n4C(C)C)no2)cc1	1280
Cc1[nH]c(C(=O)N2CCCC(C(=O)N3CCN(C4CCCCC4)CC3)C2)c(C)c1C(=O)OC(C)C (stereo unspecified)	645
Nc1nc(-c2ccccc2)nn1C(=O)c1ccccc1	904
COc1cc(OC)c(OC)cc1/C=C\c1ccnc2ccccc12	679
CN(C)c1nc2cc(C(=O)NC3CCCC3)sc2n1-c1ccc(F)cc1	1050

Other lines, results leading:

RP-LC retention time [s]	SMILES
823	CCc1nc2ccccc2c(=O)n1Cc1noc(C2CC(=O)N(c3ccccc3)C2)n1 (stereo unspecified)
669	Cc1oc(-c2[nH]ncc2C(=O)N2CCOCC2)cc1S(=O)(=O)Nc1cccc(F)c1
672	COc1ccc(Br)c(C(=O)Nc2ccc3c(c2)C(=O)NCC3)c1
888	CSc1cccc(NC(=O)N2CCC[C@@H]2C(=O)NCc2csc(-c3ccccc3)n2)c1
917	CCOc1ccc(-c2noc(CN3N=NC4C(=O)N(c5cccc(OC)c5)C(=O)C43)n2)cc1OC (stereo unspecified)
671	Cn1nccc1C(=O)N1CCN(c2cc(-c3ccccc3)[nH]n2)CC1
852	Cc1nn(CC(=O)NC2CCCC2)c(=O)c2cc(-c3ccccc3)nn12
574	CC1CCN(c2ccc(CNc3nc4ccncc4n(C(C)C)c3=O)cc2)CC1
740	CC1(C(=O)NC2CCCCCCC2)CN(S(C)(=O)=O)CC(=O)N1Cc1ccc(F)cc1 (stereo unspecified)
595	CN(C)C(=O)c1cc2c(s1)CCC(C(=O)NCc1nc3ccccc3n1C)C2 (stereo unspecified)
673	CCn1cc(CN2CCC(N3C(=O)C4(CCCC4)C3c3ccccc3)CC2)cn1 (stereo unspecified)
680	CCCNC(=O)C1CCCN(c2nc3ncn(CC(=O)NCc4ccc(OC)cc4)c(=O)c3s2)C1 (stereo unspecified)
782	Cc1noc(-c2cc(=O)n(CC(=O)NC3CCCC3)c3ccccc23)n1
1080	CCOc1ccc(-c2noc(CN3C(=O)COc4cc(Cl)ccc43)n2)cc1OC
1060	COCc1cnc2c(c1SCc1cccc(Cl)c1)c(=O)n(C)c(=O)n2C
789	COc1ccccc1C(=O)NC1CCN(c2ccccc2)C1=O (stereo unspecified)
1010	Cn1c(=O)c2c(nc3n(-c4ccc(F)cc4)c(-c4ccc(Cl)cc4)cn23)n(C)c1=O
1030	COC(=O)c1cc(C2CC2)nc2c1c(=O)n(Cc1ccccc1)c(=O)n2C
680	COc1cccc(Nc2nc3ccncc3n(C(C)C)c2=O)c1
1120	C=CCN1C(=O)COc2ccc(-c3csc(NC(=O)c4cccc(Br)c4)n3)cc21
1120	Cc1cc(=O)n(CC(=O)Nc2ccc(F)cc2)c(-c2ccc(Cl)cc2)n1
1020	COc1ccc(-c2nnc(-c3cccc(S(=O)(=O)N4CCCCCC4)c3)o2)cc1OC
915	Cc1ccc(C)c(Cn2nc3ccc(S(=O)(=O)N4CCCC4)cn3c2=O)c1
856	COc1ccc(OC)c(NC(=O)C2CCN(S(=O)(=O)c3ccc4c(c3)NC(=O)C(C)O4)CC2)c1 (stereo unspecified)
892	CCc1nc2onc(C)c2c(=O)n1CC(=O)NC1CCCc2ccccc21 (stereo unspecified)
785	COc1ccc(NC(=O)N2CCC3(C2)C(=O)N(C)c2ccccc23)cc1F (stereo unspecified)
921	Cc1ccc(S(=O)(=O)NCCc2cn(CC(C)C)c3ncccc23)cc1
552	CN1C(=O)[C@H]2CN(Cc3cccc4[nH]ccc34)C[C@H]2C1=O
674	Cc1nnc2cc(N3CCN(S(=O)(=O)c4ccccc4F)CC3)cnn12
983	O=C(CN1CN(c2ccccc2)c2ncccc2S1(=O)=O)Nc1cccc(Cl)c1
